Test results as given in PubChem BioAssay AID1918942 (Molecular Pharmacology Branch, DTP, NCI, 2023).

Test system: 743489-274-T-PDC complex spheroid viability
Experiment: Anticancer human tumor 743489-274-T-PDC patient-derived renal cell carcinoma cell line growth inhibition
Conditions: for IC50: curve of first compound; for viability, T/C: stronger effect = lower value
Outline: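 Multicellular complex spheroids of tumor cells with human endothelial cells (HUVEC) and mesenchymal stem cells; the LSD1 inhibitor iadademstat was combined with standard-of-care or investigational agents. Top concentration at or near clinical Cmax, half-log dilutions; final DMSO ≤0.25%.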

[1] = second compound 0.1 µM, first compound 0.0316 µM
[2] = second compound 0.1 µM, first compound 0.1 µM
[3] = second compound 0.1 µM, first compound 0.316 µM
[4] = second compound 0.1 µM, first compound 1 µM
[5] = second compound 0.1 µM, first compound 3.16 µM
[6] = second compound 0.1 µM, first compound 10 µM
[7] = second compound 0.316 µM, first compound 0.0316 µM
[8] = second compound 0.316 µM, first compound 0.1 µM
[9] = second compound 0.316 µM, first compound 0.316 µM
[10] = second compound 0.316 µM, first compound 1 µM
[11] = second compound 0.316 µM, first compound 3.16 µM
[12] = second compound 0.316 µM, first compound 10 µM
[13] = second compound 1 µM, first compound 0.0316 µM
[14] = second compound 1 µM, first compound 0.1 µM
[15] = second compound 1 µM, first compound 0.316 µM
[16] = second compound 1 µM, first compound 1 µM
[17] = second compound 1 µM, first compound 3.16 µM
[18] = second compound 1 µM, first compound 10 µM
[19] = second compound 3.16 µM, first compound 0.0316 µM
[20] = second compound 3.16 µM, first compound 0.1 µM
[21] = second compound 3.16 µM, first compound 0.316 µM
[22] = second compound 3.16 µM, first compound 1 µM
[23] = second compound 3.16 µM, first compound 3.16 µM
[24] = second compound 3.16 µM, first compound 10 µM
[25] = second compound 10 µM, first compound 0.0316 µM
[26] = second compound 10 µM, first compound 0.1 µM
[27] = second compound 10 µM, first compound 0.316 µM
[28] = second compound 10 µM, first compound 1 µM
[29] = second compound 10 µM, first compound 3.16 µM
[30] = second compound 10 µM, first compound 10 µM
[31] = second compound 0.1 µM, first compound 0.00949 µM
[32] = second compound 0.1 µM, first compound 0.03 µM
[33] = second compound 0.1 µM, first compound 0.0949 µM
[34] = second compound 0.1 µM, first compound 0.3 µM
[35] = second compound 0.316 µM, first compound 0.00949 µM
[36] = second compound 0.316 µM, first compound 0.03 µM
[37] = second compound 0.316 µM, first compound 0.0949 µM
[38] = second compound 0.316 µM, first compound 0.3 µM
[39] = second compound 1 µM, first compound 0.00949 µM
[40] = second compound 1 µM, first compound 0.03 µM
[41] = second compound 1 µM, first compound 0.0949 µM
[42] = second compound 1 µM, first compound 0.3 µM
[43] = second compound 3.16 µM, first compound 0.00949 µM
[44] = second compound 3.16 µM, first compound 0.03 µM
[45] = second compound 3.16 µM, first compound 0.0949 µM
[46] = second compound 3.16 µM, first compound 0.3 µM
[47] = second compound 10 µM, first compound 0.00949 µM
[48] = second compound 10 µM, first compound 0.03 µM
[49] = second compound 10 µM, first compound 0.0949 µM
[50] = second compound 10 µM, first compound 0.3 µM
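Further: spheroids exposed to compounds for 7 days before readout.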
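Wherever viability, T/C is given: 100% = DMSO vehicle control wells.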

CC1(C)CCC(CN2CCN(c3ccc(C(=O)NS(=O)(=O)c4ccc(NCC5CCOCC5)c([N+](=O)[O-])c4)c(Oc4cnc5[nH]ccc5c4)c3)CC2)=C(c2ccc(Cl)cc2)C1 + NC1CCC(NC2CC2c2ccccc2)CC1
IC50 (second compound 0.1 µM): > 10 µM | IC50 (second compound 0.316 µM): > 10 µM | IC50 (second compound 1 µM): > 10 µM | IC50 (second compound 3.16 µM): > 10 µM | IC50 (second compound 10 µM): > 10 µM | viability, T/C [1]: 105% | viability, T/C [2]: 124% | viability, T/C [3]: 114% | viability, T/C [4]: 105% | viability, T/C [5]: 125% | viability, T/C [6]: 124% | viability, T/C [7]: 125% | viability, T/C [8]: 122% | viability, T/C [9]: 116% | viability, T/C [10]: 109% | viability, T/C [11]: 117% | viability, T/C [12]: 123% | viability, T/C [13]: 125% | viability, T/C [14]: 114% | viability, T/C [15]: 119% | viability, T/C [16]: 126% | viability, T/C [17]: 134% | viability, T/C [18]: 136% | viability, T/C [19]: 114% | viability, T/C [20]: 130% | viability, T/C [21]: 134% | viability, T/C [22]: 114% | viability, T/C [23]: 117% | viability, T/C [24]: 111% | viability, T/C [25]: 128% | viability, T/C [26]: 117% | viability, T/C [27]: 118% | viability, T/C [28]: 122% | viability, T/C [29]: 129% | viability, T/C [30]: 102%

CC1COCCN1c1cc(C2(S(C)(=N)=O)CC2)nc(-c2ccnc3[nH]ccc23)n1 (stereo not given) + NC1CCC(NC2CC2c2ccccc2)CC1
IC50 (second compound 0.1 µM): > 10 µM | IC50 (second compound 0.316 µM): > 10 µM | IC50 (second compound 1 µM): > 10 µM | IC50 (second compound 3.16 µM): > 10 µM | IC50 (second compound 10 µM): > 10 µM | viability, T/C [1]: 108% | viability, T/C [2]: 106% | viability, T/C [3]: 108% | viability, T/C [4]: 116% | viability, T/C [5]: 93.7% | viability, T/C [6]: 92.1% | viability, T/C [7]: 99.6% | viability, T/C [8]: 111% | viability, T/C [9]: 107% | viability, T/C [10]: 108% | viability, T/C [11]: 112% | viability, T/C [12]: 98.6% | viability, T/C [13]: 103% | viability, T/C [14]: 123% | viability, T/C [15]: 115% | viability, T/C [16]: 113% | viability, T/C [17]: 99.8% | viability, T/C [18]: 94.9% | viability, T/C [19]: 112% | viability, T/C [20]: 103% | viability, T/C [21]: 107% | viability, T/C [22]: 106% | viability, T/C [23]: 98.5% | viability, T/C [24]: 92.7% | viability, T/C [25]: 112% | viability, T/C [26]: 103% | viability, T/C [27]: 111% | viability, T/C [28]: 121% | viability, T/C [29]: 106% | viability, T/C [30]: 94.6%

CCN(c1cc(-c2ccc(CN3CCOCC3)cc2)cc(C(=O)NCc2c(C)cc(C)[nH]c2=O)c1C)C1CCOCC1 + NC1CCC(NC2CC2c2ccccc2)CC1
IC50 (second compound 0.1 µM): > 3 µM | IC50 (second compound 0.316 µM): > 3 µM | IC50 (second compound 1 µM): > 3 µM | IC50 (second compound 3.16 µM): > 3 µM | IC50 (second compound 10 µM): > 3 µM | viability, T/C [31]: 104% | viability, T/C [32]: 103% | viability, T/C [33]: 101% | viability, T/C [34]: 102% | viability, T/C (second compound 0.1 µM, first compound 0.949 µM): 107% | viability, T/C (second compound 0.1 µM, first compound 3 µM): 104% | viability, T/C [35]: 91.1% | viability, T/C [36]: 98.5% | viability, T/C [37]: 97.4% | viability, T/C [38]: 96.2% | viability, T/C (second compound 0.316 µM, first compound 0.949 µM): 104% | viability, T/C (second compound 0.316 µM, first compound 3 µM): 102% | viability, T/C [39]: 99.8% | viability, T/C [40]: 106% | viability, T/C [41]: 101% | viability, T/C [42]: 105% | viability, T/C (second compound 1 µM, first compound 0.949 µM): 104% | viability, T/C (second compound 1 µM, first compound 3 µM): 106% | viability, T/C [43]: 107% | viability, T/C [44]: 106% | viability, T/C [45]: 110% | viability, T/C [46]: 105% | viability, T/C (second compound 3.16 µM, first compound 0.949 µM): 113% | viability, T/C (second compound 3.16 µM, first compound 3 µM): 111% | viability, T/C [47]: 109% | viability, T/C [48]: 107% | viability, T/C [49]: 108% | viability, T/C [50]: 95.7% | viability, T/C (second compound 10 µM, first compound 0.949 µM): 100% | viability, T/C (second compound 10 µM, first compound 3 µM): 104%

Nc1ncn(C2CC(O)C(CO)S2)c(=O)n1 (stereo not given) + NC1CCC(NC2CC2c2ccccc2)CC1
IC50 (second compound 0.1 µM): > 0.3 µM | IC50 (second compound 0.316 µM): > 0.3 µM | IC50 (second compound 1 µM): > 0.3 µM | IC50 (second compound 3.16 µM): > 0.3 µM | IC50 (second compound 10 µM): > 0.3 µM | viability, T/C (second compound 0.1 µM, first compound 0.000949 µM): 116% | viability, T/C (second compound 0.1 µM, first compound 0.003 µM): 95.5% | viability, T/C [31]: 104% | viability, T/C [32]: 91.1% | viability, T/C [33]: 89.6% | viability, T/C [34]: 80.5% | viability, T/C (second compound 0.316 µM, first compound 0.000949 µM): 106% | viability, T/C (second compound 0.316 µM, first compound 0.003 µM): 105% | viability, T/C [35]: 120% | viability, T/C [36]: 110% | viability, T/C [37]: 95.6% | viability, T/C [38]: 103% | viability, T/C (second compound 1 µM, first compound 0.000949 µM): 118% | viability, T/C (second compound 1 µM, first compound 0.003 µM): 112% | viability, T/C [39]: 107% | viability, T/C [40]: 97.6% | viability, T/C [41]: 87.6% | viability, T/C [42]: 87% | viability, T/C (second compound 3.16 µM, first compound 0.000949 µM): 112% | viability, T/C (second compound 3.16 µM, first compound 0.003 µM): 116% | viability, T/C [43]: 96.8% | viability, T/C [44]: 108% | viability, T/C [45]: 88.4% | viability, T/C [46]: 102% | viability, T/C (second compound 10 µM, first compound 0.000949 µM): 113% | viability, T/C (second compound 10 µM, first compound 0.003 µM): 125% | viability, T/C [47]: 101% | viability, T/C [48]: 104% | viability, T/C [49]: 93.4% | viability, T/C [50]: 98%
